# Data reported in DBAASP.
# Columns and labels:
# Test in all cases: ≥ marks a high value that may be exact or a test limit, other limits are often not marked, values filed in µg/mL are converted to µM
# [1] = tested on: Bacillus subtilis IFO 3134
# [2] = tested on: Escherichia coli IFO 12734
# [3] = tested on: Staphylococcus aureus IFO 12732
# [4] = tested on: Pseudomonas aeruginosa IFO 12582
# [5] = tested on: Burkholderia cepacia J2540
# [6] = tested on: Escherichia coli ATCC 25922
# [7] = tested on: Xanthomonas axonopodis pv. glycines ISBF 327
# [8] = tested on: Pseudomonas aeruginosa ATCC 27853
# [9] = tested on: Staphylococcus aureus BCRC 10780
# [10] = tested on: Streptococcus pneumoniae BCRC 10794
# [11] = tested on: Micrococcus luteus ATCC 10240
# [12] = tested on: Escherichia coli BL21AI
# [13] = tested on: Staphylococcus epidermidis ATCC 12228
# [14] = tested on: Salmonella enterica subsp. enterica serovar Typhi DMST 22842
# [15] = tested on: Staphylococcus aureus ATCC 25923
# [16] = tested on: Vibrio cholerae
# [17] = tested on: Escherichia coli MG1655
# [18] = tested on: Staphylococcus aureus MTCC 9542
# [19] = tested on: Cronobacter sakazakii DPC 6440
# [20] = tested on: Listeria monocytogenes LO28
compound,measurement,setting,value
CC[C@H](C)[C@H](NC(=O)[C@H](C)NC(=O)[C@@H]1CCCN1C(=O)[C@@H](NC(=O)[C@@H](NC(=O)[C@H](CCCCN)NC(=O)[C@H](C)NC(=O)[C@H](C)NC(=O)[C@@H](NC(=O)[C@H](CCCCN)NC(=O)[C@H](C)NC(=O)[C@H](CC(C)C)NC(=O)[C@@H](NC(=O)CNC(=O)[C@H](Cc1ccccc1)NC(=O)[C@H](CC(C)C)NC(=O)CN)C(C)C)C(C)C)C(C)C)C(C)C)C(=O)N[C@@H](C)C(=O)N[C@@H](CCC(=O)O)C(=O)N[C@@H](Cc1cnc[nH]1)C(=O)N[C@@H](Cc1ccccc1)C(N)=O [GLFGVLAKVAAKVVPAIAEHF],MIC,[1],8 µM
same,MIC,[2],16 µM
same,MIC,[3],8 µM
same,MIC,[4],≥ 32 µM
CC[C@H](C)[C@H](NC(=O)CNC(=O)[C@H](CCCN=C(N)N)NC(=O)[C@H](CC(C)C)NC(=O)[C@H](Cc1ccccc1)NC(=O)[C@H](CC(=O)O)NC(=O)[C@H](CCCCN)NC(=O)[C@@H](NC(=O)[C@H](CCCN=C(N)N)NC(=O)[C@H](CCC(N)=O)NC(=O)[C@@H](NC(=O)[C@@H](NC(=O)[C@H](CCCN=C(N)N)NC(=O)[C@H](CCCCN)NC(=O)[C@@H](N)Cc1ccccc1)[C@@H](C)CC)C(C)C)[C@@H](C)CC)C(=O)NCC(=O)N[C@@H](CCCCN)C(=O)N[C@@H](Cc1ccccc1)C(=O)N[C@@H](CC(C)C)C(=O)N[C@@H](Cc1cnc[nH]1)C(=O)N[C@@H](CO)C(=O)N[C@@H](C)C(=O)N[C@@H](CCCCN)C(=O)N[C@@H](CCCCN)C(=O)N[C@@H](Cc1ccccc1)C(=O)O [FKRIVQRIKDFLRGIGKFLHSAKKF],MIC,[5],10.3 µM
CC[C@H](C)[C@H](NC(=O)[C@H](CCCN=C(N)N)NC(=O)[C@H](CCCCN)NC(=O)[C@H](CC(C)C)NC(=O)[C@H](CO)NC(=O)[C@@H](NC(=O)[C@@H](NC(=O)[C@H](CCCCN)NC(=O)[C@@H](NC(=O)CNC(=O)[C@@H](NC(=O)[C@H](CO)NC(=O)[C@H](CC(C)C)NC(=O)[C@H](Cc1ccccc1)NC(=O)[C@H](CCSC)NC(=O)[C@H](CCCCN)NC(=O)[C@H](CCCCN)NC(=O)[C@@H](NC(=O)[C@H](CCC(N)=O)NC(=O)[C@H](Cc1cnc[nH]1)NC(=O)[C@H](Cc1ccccc1)NC(=O)[C@H](CCCCN)NC(=O)CN)[C@@H](C)CC)C(C)C)C(C)C)C(C)C)[C@@H](C)O)C(=O)N[C@@H](CCC(N)=O)C(=O)N[C@@H](Cc1ccccc1)C(=O)NCC(=O)N[C@@H](CC(=O)O)C(=O)N[C@@H](Cc1ccccc1)C(N)=O [GKFHQIKKMFLSVGVKVTSLKRIQFGDF],MIC,[6],20 µM
same,MIC,[7],10 µM
same,MIC,[8],20 µM
CC[C@H](C)[C@H](NC(=O)[C@H](CCSC)NC(=O)[C@H](CCCCN)NC(=O)CNC(=O)[C@H](C)NC(=O)[C@H](Cc1cnc[nH]1)NC(=O)[C@H](Cc1ccccc1)NC(=O)[C@H](CC(C)C)NC(=O)CNC(=O)[C@H](CCCCN)NC(C)=O)C(=O)N[C@@H](Cc1cnc[nH]1)C(N)=O [KGLFHAGKMIH],MIC,[9],≥ 80.7 µM
same,MIC,[10],≥ 80.7 µM
CC[C@H](C)[C@H](NC(=O)[C@H](CCCN=C(N)N)NC(=O)[C@H](CCCN=C(N)N)NC(=O)[C@@H]1CCCN1C(=O)[C@@H]1CCCN1C(=O)[C@H](Cc1cnc[nH]1)NC(=O)[C@@H]1CCCN1C(=O)[C@H](CCCN=C(N)N)NC(=O)[C@@H]1CCCN1C(=O)[C@H](CC(C)C)NC(=O)[C@H](Cc1ccc(O)cc1)NC(=O)[C@@H]1CCCN1C(=O)[C@@H]1CCCN1C(=O)[C@H](CCCCN)NC(=O)[C@H](CC(=O)O)NC(=O)[C@@H](N)C(C)C)C(=O)N[C@@H](Cc1ccc(O)cc1)C(=O)N[C@@H](CC(N)=O)C(=O)N[C@@H](CC(N)=O)C(=O)N[C@@H](CCCN=C(N)N)C(=O)O [VDKPPYLPRPHPPRRIYNNR],MIC,[11],12.9 µM
same,MIC,[12],25.7 µM
CC(C)[C@H](NC(=O)CNC(=O)[C@@H](N)CC(N)=O)C(=O)N[C@@H](CCC(N)=O)C(=O)N1CCC[C@H]1C(=O)N[C@@H](CCCCN)C(=O)N[C@@H](Cc1ccc(O)cc1)C(=O)N[C@@H](CCCN=C(N)N)C(=O)N[C@@H](Cc1c[nH]c2ccccc12)C(=O)N[C@@H](Cc1c[nH]c2ccccc12)C(=O)N[C@@H](CCCN=C(N)N)C(=O)N[C@@H](Cc1c[nH]c2ccccc12)C(=O)N[C@@H](Cc1c[nH]c2ccccc12)C(=O)N[C@@H](CCCN=C(N)N)C(=O)N[C@@H](CCCN=C(N)N)C(=O)N[C@@H](Cc1c[nH]c2ccccc12)C(=O)N[C@@H](Cc1c[nH]c2ccccc12)C(=O)N[C@@H](Cc1c[nH]c2ccccc12)C(=O)O [NGVQPKYRWWRWWRRWWW],MIC,[13],33.3 µM
same,MIC,[14],≥ 33.3 µM
same,MIC,[6],> 33.3 µM
same,MIC,[15],> 33.3 µM
CC[C@H](C)[C@@H]1NC(=O)[C@H](CCCCN)NC(=O)[C@@H](NC(=O)[C@H](CC(C)C)NC(=O)[C@@H](NC(=O)[C@H](CCC(N)=O)NC(=O)[C@@H]2CCCN2C(=O)[C@H](CC(C)C)NC(=O)[C@H](Cc2ccccc2)NC(=O)[C@H](CC(N)=O)NC(=O)[C@H](C)NC(=O)[C@H](C)NC(=O)[C@H](CC(C)C)NC(=O)CNC(=O)[C@H](C)N)[C@@H](C)CC)CSSC[C@@H](C(N)=O)NC(=O)[C@H](CCCCN)NC(=O)[C@H](CCCN=C(N)N)NC(=O)[C@H](C)NC1=O [AGLAANFLPQILCKIARKC],MIC,[16],12.3 µM
same,MIC,[17],24.6 µM
same,MIC,[18],24.6 µM
same,MIC,[8],> 49.2 µM
CSCC[C@H](NC(=O)[C@H](C)NC(=O)CNC(=O)[C@H](C)NC(=O)[C@H](Cc1cnc[nH]1)NC(=O)[C@H](Cc1ccccc1)NC(C)=O)C(N)=O [FHAGAM],MIC,[9],≥ 158 µM
same,MIC,[10],≥ 158 µM
CC[C@H](C)[C@H](NC(=O)[C@H](Cc1c[nH]c2ccccc12)NC(=O)[C@@H]1CCCN1C(=O)[C@H](CCCCN)NC(=O)[C@H](CCSC)NC(=O)[C@H](C)NC(=O)[C@H](CCCCN)NC(=O)[C@H](CCC(N)=O)NC(=O)[C@H](Cc1cnc[nH]1)NC(=O)[C@H](CCC(N)=O)NC(=O)[C@H](Cc1ccc(O)cc1)NC(=O)[C@@H](N)C(C)C)C(=O)N[C@@H](CCC(N)=O)C(=O)N1CCC[C@H]1C(=O)N[C@@H](CCCCN)C(=O)N[C@H](C(=O)N[C@@H](CCCCN)C(=O)N[C@H](C(=O)N[C@H](C(=O)N1CCC[C@H]1C(=O)N[C@@H](Cc1ccc(O)cc1)C(=O)N[C@H](C(=O)N[C@@H](CCCN=C(N)N)C(=O)N[C@@H](Cc1ccc(O)cc1)C(=O)N[C@@H](CC(C)C)C(=O)O)C(C)C)[C@@H](C)CC)C(C)C)[C@@H](C)O [VYQHQKAMKPWIQPKTKVIPYVRYL],MIC,[19],≥ 312 µM
same,MIC,[20],≥ 78.1 µM
CC[C@H](C)[C@H](NC(=O)[C@H](Cc1c[nH]c2ccccc12)NC(=O)[C@@H]1CCCN1C(=O)[C@H](CCCCN)NC(=O)[C@H](CCSC)NC(=O)[C@H](C)NC(=O)[C@@H](N)CCCCN)C(=O)N[C@@H](CCC(N)=O)C(=O)N1CCC[C@H]1C(=O)N[C@@H](CCCCN)C(=O)N[C@H](C(=O)N[C@@H](CCCCN)C(=O)N[C@H](C(=O)N[C@H](C(=O)N1CCC[C@H]1C(=O)N[C@@H](Cc1ccc(O)cc1)C(=O)N[C@H](C(=O)N[C@@H](CCCN=C(N)N)C(=O)N[C@@H](Cc1ccc(O)cc1)C(=O)N[C@@H](CC(C)C)C(=O)O)C(C)C)[C@@H](C)CC)C(C)C)[C@@H](C)O [KAMKPWIQPKTKVIPYVRYL],MIC,[19],≥ 39.1 µM
same,MIC,[20],≥ 39.1 µM
CC(C)[C@H](NC(=O)CNC(=O)[C@@H](N)CC(N)=O)C(=O)N[C@@H](CCC(N)=O)C(=O)N1CCC[C@H]1C(=O)N[C@@H](CCCCN)C(=O)N[C@@H](Cc1ccc(O)cc1)C(=O)N[C@@H](CCCCN)C(=O)N[C@@H](Cc1c[nH]c2ccccc12)C(=O)N[C@@H](Cc1c[nH]c2ccccc12)C(=O)N[C@@H](CCCCN)C(=O)N[C@@H](Cc1c[nH]c2ccccc12)C(=O)N[C@@H](Cc1c[nH]c2ccccc12)C(=O)N[C@@H](CCCCN)C(=O)N[C@@H](CCCCN)C(=O)N[C@@H](Cc1c[nH]c2ccccc12)C(=O)N[C@@H](Cc1c[nH]c2ccccc12)C(=O)N[C@@H](Cc1c[nH]c2ccccc12)C(N)=O [NGVQPKYKWWKWWKKWWW],MIC,[13],8.78 µM
same,MIC,[14],8.78 µM
same,MIC,[6],4.2 µM
same,MIC,[15],> 34.7 µM
